According to a compilation of properties of binary mixtures (doi:10.1021/acs.jpcc.8b05193):

Assay: xn = mol fraction of the nth substance listed
Details: 100 kPa

O=S(=O)([N-]S(=O)(=O)C(F)(F)F)C(F)(F)F.[Li+] + O
Details	electrical conductivity [S/m]
260.73 K, x2 = 0.7857	0.407
261.98 K, x2 = 0.8065	0.617
262.18 K, x2 = 0.8855	1.33
262.4 K, x2 = 0.9148	1.46
262.6 K, x2 = 0.8271	0.808
262.82 K, x2 = 0.8495	1.04
265.92 K, x2 = 0.7857	0.55
266.56 K, x2 = 0.8065	0.767
266.96 K, x2 = 0.8495	1.25
266.96 K, x2 = 0.9761	1.36
267.38 K, x2 = 0.8855	1.66
267.6 K, x2 = 0.9148	1.86
270.7 K, x2 = 0.7857	0.684
271.54 K, x2 = 0.8065	0.966
271.96 K, x2 = 0.9761	1.73
272.15 K, x2 = 0.8271	1.21
272.6 K, x2 = 0.9148	2.27
273.4 K, x2 = 0.7538	0.461
273.4 K, x2 = 0.8495	1.62
275.7 K, x2 = 0.7857	0.843
277.15 K, x1 = 0.0039	0.623
277.35 K, x2 = 0.8065	1.16
277.35 K, x2 = 0.8855	2.54
277.35 K, x2 = 0.9761	2.06
277.55 K, x2 = 0.8271	1.51
277.97 K, x2 = 0.7538	0.579
277.97 K, x2 = 0.9148	2.88
278.19 K, x2 = 0.8495	1.94
280.67 K, x2 = 0.7857	1.06
281.51 K, x2 = 0.8271	1.8
281.93 K, x2 = 0.8855	2.94
282.13 K, x2 = 0.9761	2.49
282.32 K, x1 = 0.0039	0.736
282.32 K, x2 = 0.8065	1.43
282.55 K, x2 = 0.9148	3.3
282.74 K, x2 = 0.8495	2.22
285.45 K, x2 = 0.7857	1.23
286.71 K, x2 = 0.9148	3.94
286.9 K, x2 = 0.8271	2.11
287.1 K, x2 = 0.8065	1.66
287.32 K, x2 = 0.8855	3.47
287.52 K, x2 = 0.9761	2.94
287.94 K, x2 = 0.8495	2.65
291.06 K, x2 = 0.7857	1.46
291.46 K, x2 = 0.8271	2.41
291.88 K, x2 = 0.8855	3.98
292.1 K, x2 = 0.9761	3.33
292.52 K, x2 = 0.7538	1.02
292.71 K, x2 = 0.9148	4.51
293.13 K, x2 = 0.8495	3.17
295.84 K, x2 = 0.7857	1.71
296.88 K, x2 = 0.6988	0.538
296.88 K, x2 = 0.9761	3.81
297.29 K, x2 = 0.8065	2.22
297.29 K, x2 = 0.8855	4.65
297.49 K, x2 = 0.7538	1.19
297.49 K, x2 = 0.8495	3.51
297.49 K, x2 = 0.9148	5.33
298.11 K, x1 = 0.0039	1.07
300.4 K, x2 = 0.7857	1.96
302.47 K, x1 = 0.0039	1.21
302.47 K, x2 = 0.6988	0.636
302.47 K, x2 = 0.8855	5.16
302.69 K, x2 = 0.9761	4.37
303.11 K, x2 = 0.8065	2.62
305.59 K, x2 = 0.7857	2.24
307.05 K, x2 = 0.8855	5.67
307.05 K, x2 = 0.9148	6.42
307.24 K, x2 = 0.6988	0.767
307.46 K, x1 = 0.0039	1.35
307.46 K, x2 = 0.8271	3.62
307.46 K, x2 = 0.8495	4.46
310.79 K, x2 = 0.7857	2.57
312.02 K, x2 = 0.9761	5.38
312.24 K, x2 = 0.7538	1.8
312.24 K, x2 = 0.8271	4.02
312.24 K, x2 = 0.8495	4.95
312.66 K, x1 = 0.0039	1.51
312.66 K, x2 = 0.8855	6.42
312.66 K, x2 = 0.9148	7.28
313.05 K, x2 = 0.6601	0.528
316.6 K, x1 = 0.0039	1.62
316.8 K, x2 = 0.8855	7.06
317.02 K, x2 = 0.8065	3.59
317.21 K, x2 = 0.9761	5.97
317.41 K, x2 = 0.9148	8.07
317.63 K, x2 = 0.6601	0.604
317.83 K, x2 = 0.7538	2.06
321.79 K, x2 = 0.8065	3.94
321.79 K, x2 = 0.8855	7.59
321.99 K, x1 = 0.0039	1.78
322.19 K, x2 = 0.8271	4.85
322.41 K, x2 = 0.9148	8.69
322.61 K, x2 = 0.8495	6.03
322.83 K, x2 = 0.6601	0.692
323.03 K, x2 = 0.6988	1.18
326.35 K, x2 = 0.7857	3.51
326.77 K, x1 = 0.0039	1.92
326.97 K, x2 = 0.8855	8.33
327.19 K, x2 = 0.7538	2.52
327.19 K, x2 = 0.9148	9.45
327.38 K, x2 = 0.9761	7.13
327.8 K, x2 = 0.8495	6.49
328.02 K, x2 = 0.8065	4.56
328.64 K, x2 = 0.6601	0.833
332.16 K, x1 = 0.0039	2.08
332.58 K, x2 = 0.6988	1.52
332.58 K, x2 = 0.9148	10
332.78 K, x2 = 0.9761	7.67
333.42 K, x2 = 0.6601	0.945
336.94 K, x2 = 0.8271	6.35
337.16 K, x1 = 0.0039	2.2
337.36 K, x2 = 0.8065	5.27
337.55 K, x2 = 0.8495	7.59
337.55 K, x2 = 0.9148	10.7
337.78 K, x2 = 0.9761	8.25
337.97 K, x2 = 0.7538	3.13
338.19 K, x2 = 0.6601	1.05
338.19 K, x2 = 0.6988	1.73
342.33 K, x2 = 0.8495	8.16
342.33 K, x2 = 0.9148	11.6
342.55 K, x2 = 0.6988	1.88
342.55 K, x2 = 0.8855	10.4
342.75 K, x2 = 0.9761	8.87
345.65 K, x2 = 0.7857	4.95
347.11 K, x2 = 0.8855	11
347.33 K, x2 = 0.6601	1.35
347.33 K, x2 = 0.8065	6.03
347.33 K, x2 = 0.8271	7.51
347.75 K, x2 = 0.9148	12.5
347.94 K, x2 = 0.7538	3.73
350.43 K, x2 = 0.7857	5.27
352.11 K, x2 = 0.8495	9.06
352.3 K, x1 = 0.0039	2.65
352.52 K, x2 = 0.9148	13
352.72 K, x2 = 0.8271	7.91
352.72 K, x2 = 0.9761	9.74
352.92 K, x2 = 0.6601	1.48
353.14 K, x2 = 0.6988	2.34
353.34 K, x2 = 0.7538	4.02
356.66 K, x2 = 0.8065	6.91
356.88 K, x2 = 0.6988	2.49
357.08 K, x2 = 0.9761	10.3
357.3 K, x2 = 0.8271	8.33
357.3 K, x2 = 0.8495	9.74
357.5 K, x1 = 0.0039	2.85
357.7 K, x2 = 0.6601	1.64
357.92 K, x2 = 0.7538	4.32
359.79 K, x2 = 0.7857	6.03
360.82 K, x2 = 0.8065	7.28
360.82 K, x2 = 0.9761	10.7
361.66 K, x2 = 0.8495	10.3
361.66 K, x2 = 0.8855	13.2
361.86 K, x1 = 0.0039	3.04
362.05 K, x2 = 0.6601	1.82
362.05 K, x2 = 0.8271	8.96
362.47 K, x2 = 0.6988	2.76
363.11 K, x2 = 0.9148	14.5
363.31 K, x2 = 0.7538	4.7
